We go through 3 compounds from patent US4585866A, “Treatment of migraine with substituted tropyl benzoate derivatives” (Merrell Dow Pharmaceuticals Inc., priority 1984, dated 1986).

The subject of one data set is acute migraine attack. To be noted: slow intravenous injection, 10 mg; J. B. Hughes, Med. J. Aust. 1977; cited from earlier work.
For data set [1], the target named is T1, 5-HT M-receptor (Oryctolagus cuniculus, UniProt A0A5F9C9J3).
T1 construct: determining their pA2 values in the isolated rabbit heart; from tissue; host or cells: isolated rabbit heart (receptor on the cardiac neurones)
T1 sequence (A0A5F9C9J3 1-494): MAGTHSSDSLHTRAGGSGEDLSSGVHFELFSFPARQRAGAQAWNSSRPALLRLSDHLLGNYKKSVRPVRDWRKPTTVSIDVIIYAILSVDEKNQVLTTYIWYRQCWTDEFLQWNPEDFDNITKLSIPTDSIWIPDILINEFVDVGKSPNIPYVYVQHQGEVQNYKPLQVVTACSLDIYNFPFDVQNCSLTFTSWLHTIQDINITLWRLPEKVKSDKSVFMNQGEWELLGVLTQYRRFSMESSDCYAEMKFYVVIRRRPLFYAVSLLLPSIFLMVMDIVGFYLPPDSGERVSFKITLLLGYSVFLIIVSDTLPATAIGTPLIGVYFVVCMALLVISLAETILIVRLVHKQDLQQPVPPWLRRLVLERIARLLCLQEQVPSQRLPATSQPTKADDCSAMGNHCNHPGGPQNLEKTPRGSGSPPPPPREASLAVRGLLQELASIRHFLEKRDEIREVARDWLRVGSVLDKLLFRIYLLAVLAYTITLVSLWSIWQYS
The note with it: cited from earlier work.

In data set [2] the test system is migraine or cluster headaches. The data set can be described thus: Pilot study of intravenous tropyl 3,5-dichlorobenzoate in patients with migraine or cluster headaches. In kind it is in vivo. The source says: Pilot Study of Tolerance To Intravenous Tropyl 3,5-Dichlorobenzoate in Patients With Migraine or Cluster Headaches
This study was designed to evaluate tolerance and, if possible, efficacy of intravenous tropyl 3,5-dichlorobenzoate in patients with migraine or cluster headaches.
Eight patients (4 males), aged 27-47 with known headache disorders of 5-27 years duration (see Table VII) took part in the study but Patients Nos. 2 and 4 had cluster not migraine headaches and the cause of headaches in Patient No. 6 was unknown.
Tropyl 3,5-dichlorobenzoate was provided as a sterile solution, 1 mg/ml; the desired dose to be diluted in 10 ml normal saline for intravenous infusion over a 2 minute period. No other therapy was taken for at least 24 hours before treatment or during the course of therapy.

A further data set in a line: LD50 in the rat. To be noted: in vivo, iv.
The next data set deals with guinea-pig taenia caeci. The data set is described as follows: Inhibition of standard response to calcium, guinea-pig taenia caeci. In kind it is cell-based. The note with it: Cavia porcellus; guinea-pig taenia caeci in potassium-depolarized Tyrode solution, agonist calcium; read-out: Concentration to inhibit standard response to stimulants by 50% (IC50). The source says: (§1) A selection of classical in vitro pharmacological test preparations (rat uterus, rat fundus, guinea-pig ileum, guinea-pig taenia caeci) were set up according to well-established procedures (see "Pharmacological Experiments on Isolated Preparations" Staff of the Department of Pharmacology, University of Edinburgh, Livingstone, Edinburgh 1970). Various spasmogens were used to elicit contraction of these tissues though mechanisms other than the 5-HT "M" receptor. The concentrations of tropyl 3,5-dimethoxybenzoate (A), tropyl 3,5-dimethylbenzoate (B) and tropyl 3,5-dichlorobenzoate (C) which reduced the effects of a submaximal dose of agonist by 50% were determined (IC50). The results are set forth in Table VI below in which the compounds are identified by the reference letters used above.
*In potassiumdepolarized Tyrode solution

In data set [3] the test system is rat fundus. The data set is described as follows: Inhibition of standard response to acetylcholine, rat fundus. To be noted: agonist acetylcholine, read-out: Concentration to inhibit standard response to stimulants by 50% (IC50). The class given is cell-based.
Source text: as §1

Data set [4] concerns Von Bezold-Jarisch Reflex (5-HT M-receptor). The data set can be described thus: Antagonism of the Von Bezold-Jarisch reflex evoked by 5-HT in the anaesthetized rat. In kind it is in vivo, rat (male Sprague-Dawley). To be noted: comparison in words, i.v. An excerpt: The activity of these compounds against 5-HT can be assessed in vivo by measurement of the effect of the compound on the Von Bezold-Jarisch Reflex induced by 5-HT injected intravenously into the rat (A. S. Paintal, Physiol. Rev. 53, 159-227, 1973). The transient caridac slowing arises from an increased afferent vagus activity arising from stimulation by 5-HT of sensory afferent fibres in and around the heart (see Example 3).
Antagonism of the Von Bezold-Jarisch reflex evoked by 5-HT in the anaesthetized rat was measured for tropyl 3,5-dimethoxybenzoate (A), tropyl 3,5-dimethylbenzoate (B) and tropyl 3,5-dichlorobenzoate (C) using the following method.
Male Sprague-Dawley rats weighing 250-300 g are anaesthetized with urethane, 1.25 g/kg injected intraperitoneally and set up for recording blood pressure and heart rate as described in J. R. Fozard et al, J. Cardiovas. Pharmacol. 2, 229-245 (1980). A submaximal dose of 5-HT ([…]) is given repeatedly into the cannulated jugular vein and changes in heart rate are quantified. Antagonists are given intravenously and the doses required to just inhibit the response to 5-HT (threshold dose) or to inhibit the response to 5-HT by 50% (ED50) are determined.

For data set [5], the system named is rat uterus. The data set is described as follows: Inhibition of standard response to oxytocin, rat uterus. In kind it is cell-based. The note with it: agonist oxytocin, read-out: Concentration to inhibit standard response to stimulants by 50% (IC50).
Source text: as §1

Data set [6] has as its system rat uterus. The data set can be described thus: Inhibition of standard response to 5-HT, rat uterus. To be noted: agonist 5-HT, read-out: Concentration to inhibit standard response to stimulants by 50% (IC50). The class given is cell-based.
Source text: as §1

In data set [7] the test system is rat fundus. The data set can be described thus: Inhibition of standard response to 5-HT, rat fundus. The class given is cell-based. To be noted: agonist 5-HT, read-out: Concentration to inhibit standard response to stimulants by 50% (IC50).
Source text: as §1

Data set [8] deals with guinea-pig ileum. The data set can be described thus: Inhibition of standard response to histamine, guinea-pig ileum. The class given is cell-based. The note with it: Cavia porcellus, agonist histamine, read-out: Concentration to inhibit standard response to stimulants by 50% (IC50).
Source text: as §1

Data set [9] addresses T1, 5-HT M-receptor. The data set can be described thus: pA2 against 5-HT in isolated rabbit heart. The class given is cell-based. How it is done:
(§2) The activity of the compounds against 5-HT can be assessed by determining their pA2 values in the isolated rabbit heart as described by J. R. Fozard et al, Eur. J. Pharmacol., 59, 195-210 (1979). In the method described, the molar concentration of antagonist which reduces the effects of twice the ED50 of 5-HT to that of the ED50 in the absence of antagonist is determined. The pA2 value is the negative logarithm of said molar concentrations.

Data set [10] addresses T2, rabbit heart (5-HT M receptor) (Oryctolagus cuniculus, UniProt A0A5F9C9J3).
T2 construct: RABBIT HEART; from tissue; host or cells: rabbit heart
T2 sequence (A0A5F9C9J3 1-494): T1 sequence (A0A5F9C9J3 1-494)
The data set can be described thus: Inhibition of standard response to 5-HT, rabbit heart. In kind it is cell-based. The method, then: as §2, §1

Data set [11] deals with guinea-pig ileum. The data set is described as follows: Inhibition of standard response to acetylcholine, guinea-pig ileum. The class given is cell-based. To be noted: Cavia porcellus, agonist acetylcholine, read-out: Concentration to inhibit standard response to stimulants by 50% (IC50).
Source text: as §1

The next data set has as its system mouse. The data set can be described thus: LD50 in the mouse. In kind it is in vivo. To be noted: as shown by LD50 values in the mouse and rat.
A short description of a further data set: LD50 in the mouse. The class given is in vivo. To be noted: in vivo, mouse.
For data set [12], the system named is guinea-pig ileum. The data set is described as follows: Inhibition of standard response to carbachol, guinea-pig ileum. The note with it: Cavia porcellus, carbachol agonist instead of acetylcholine, read-out: Concentration to inhibit standard response to stimulants by 50% (IC50). In kind it is cell-based.
Source text: as §1
**Carbachol agonist instead of acetylcholine

[13] abbreviates: Patient 6, i.v., after 4 mg dose.
Setting [14] is: Patient 8, i.v., first day of 9 mg.

Read-outs that look alike come from different tables or passages of the source.

`CCN(CC)CCNC(=O)c1cc(Cl)c(N)cc1OC` [metoclopramide]: the “relief of acute migraine attack” value in the data set with acute migraine attack is “immediate relief of acute migraine attack”. For the same compound, the “potency as 5-HT M-receptor antagonist” value at 5-HT M-receptor [1] (literature) is listed as “potent 5-HT M-receptor antagonist”. Also, at 5-HT M-receptor [1] (reported by J. R. Fozard et al, Eur. J. Pharmacol. 1979 / 1978), the “pA2 value (5-HT)” value is reported as 7.2.
For `CN1[C@@H]2CC[C@H]1C[C@@H](OC(=O)c1cc(Cl)cc(Cl)c1)C2` [tropyl 3,5-dichlorobenzoate], the response entry in data set [2] (Patient 1, i.v. 1 mg, then 1 hour later, 2 mg) was “no effect on headache or nausea”; in data set [2] (Patient 2 (cluster headache), i.v. 1 mg), “no effect”; in data set [2] (Patient 3, i.v. 3 mg), “no effect”; in [2] (Patient 4 (cluster headache), i.v. 3 mg), “no effect”; in data set [2] (Patient 5, i.v. 5 mg), “no effect”; in data set [2] (Patient 7, i.v. 3 mg × 1 day, 5 mg × 2 days, 7 mg × 1 day) it was “no effect”. Besides, the “period over which reduction in headache intensity lasted” value in [2] (Patient 6, i.v.) was 21/2. Moreover, the headache reduction entry in [2] (Patient 6, i.v. 3 mg single doses) was “slight reduction in their bilateral headache”; in data set [2] (Patient 6, i.v. 4 mg bid), “further amelioration”. Moreover, the “response with increased doses” value in data set [2] (Patient 6, i.v. 5 mg bid × 2 days, then 6 mg bid × 11 days) is given as “no greater effect”. The “duration of reduction of pain intensity” value in [2] (setting [13]) fell in the range of 4 to 8 h. The “onset of reduction of pain intensity” value in [2] (setting [13]) is ≤ 30 min. Also, the “reduction of pain intensity” value in data set [2] (Patient 6, i.v., within 30 minutes after 4 mg dose) is listed as 70-80%. Besides, the “return of headache to pretreatment intensity after stopping therapy” value in [2] (Patient 8, after stopping i.v. therapy) lay in the range of 6 to 7 days. Besides, the reduction of pain result in [2] (Patient 8, i.v. 3 mg) is recorded as “about 30%”. Besides, the “response during increasing doses” value in data set [2] (Patient 8, i.v. 6 mg × 1 day, 7 mg × 2 days, 9 mg × 1 day) is reported as “maintained during increasing doses”. Besides, the “episode of pain, nausea, vomiting and photophobia” value in data set [2] (setting [14]) is recorded as “single episode of pain”. The “symptom return during treatment” value in data set [2] (setting [14]) was “single episode of symptom return”. Besides, the “symptoms (headache, nausea, vomiting, vertigo, photophobia)” value in data set [2] (Patient 8, i.v., first dose of 3 mg) was “decrease in all symptoms”. Besides, the “tolerance of initial dose” value in data set [2] (i.v., initial dose 1 mg) is “well tolerated”. Besides, the “cumulative dose well tolerated” value in data set [2] (i.v., over 18 days) is ≤ 177 mg. Further, the “dose administered without any signs of intolerance, daily” value in data set [2] (i.v., patients) is listed as ≤ 14 mg/day. Also, the “dose well tolerated, repeated doses” value in [2] (i.v., repeated doses, patients with headaches) is recorded as “up to 7 mg b.i.d”. For the same compound, the “number of patients responding to repeated doses” value in data set [2] (repeated i.v. doses, marked diminution of headache and associated symptoms, of three patients) is recorded as “two of the three patients”. Moreover, the “headache and associated symptoms” value in [2] (repeated i.v. doses, two of the three patients (Patients Nos. 6 and 8)) is “marked diminution of headache and associated symptoms”. In data set [2] (some patients, i.v. doses of 3 mg or greater), the “pain intensity and associated symptoms” value was “pain intensity and associated symptoms were ameliorated”. Also, the 50% lethal dose (LD50) in the data set “LD50 in the rat” worked out at 14 mg/kg; in the data set “LD50 in the mouse” (ip), 32 mg/kg; in “LD50 in the mouse” (iv), 24 mg/kg; in the data set “LD50 in the mouse” (oral), 90 mg/kg. Besides, the IC50 was 28.6 µM in the data set on guinea-pig taenia caeci; 12.4 µM in the data set with rat fundus [3]; > 50.9 µM in the data set with rat uterus [5]; 25.4 µM with rat uterus [6]; > 50.9 µM with rat fundus [7]; 3.68 µM in the data set with guinea-pig ileum [8]. For the same compound, the IC50 in data set [10] is 0.00082 µM; in the data set on guinea-pig ileum [11] it was 8.05 µM. Further, the “potency relative to metoclopramide” value in [4] is “many times more potent than metoclopramide”. At 5-HT M-receptor [9], this compound showed a Kb of 0.000501 µM. Also, the toxicity in words result with mouse was “relatively non-toxic”.
On to `Cc1cc(C)cc(C(=O)O[C@H]2C[C@H]3CC[C@@H](C2)N3C)c1` [tropyl 3,5-dimethylbenzoate], for which the LD50 in “LD50 in the rat” was determined as 9 mg/kg; in the data set “LD50 in the mouse” (ip), 47 mg/kg; in “LD50 in the mouse” (iv) it was 17 mg/kg; in “LD50 in the mouse” (oral), 116 mg/kg. Moreover, the IC50 came to 34.2 µM in the data set on guinea-pig taenia caeci; 0.00103 µM in [10] (rabbit heart, agonist 5-HT, read-out: Concentration to inhibit standard response to stimulants by 50% (IC50)); 9.59 µM with guinea-pig ileum [12]. Further, in data set [4], the “potency relative to metoclopramide” value was “many times more potent than metoclopramide”. Further, the Kb on 5-HT M-receptor [9] (isolated rabbit heart, negative log of molar concentration of antagonist reducing effect of twice the ED50 of 5-HT to that of the ED50, read-out: pA2 5-HT (converted)) was 0.001 µM. Moreover, the toxicity in words result in the data set with mouse is “relatively non-toxic”.

A word on the LD50: it is the dose at which mortality reaches 50%. A lower LD50 goes with greater toxicity.
